Values of other authors, collected in patent publication US20080206336A1, “Novel Composition Comprising Rosiglitazone and Another Antidiabetic Agent” (SB PHARMCO PURERTO RICO INC. The Prentice Hall Corp. System …, priority 2003, published 2008).

Conditions: acidic conditions of the stomach (around pH 2) versus near neutral conditions of the lower intestine (around pH 7)

## CN(CCOc1ccc(CC2SC(=O)NC2=O)cc1)c1ccccn1 (stereo not shown) [Compound A, 5-[4-[2-(N-methyl-N-(2 pyridyl)amino)ethoxy]benzyl]thiazolidine-2,4-dione]
  pH dependent solubility: marked pH dependent solubility
